Results reported in patent US20240374680A1, “PHARMACEUTICAL COMPOSITION FOR TREATMENT OF VIRAL INFECTIONS” (Virenc AB, priority 2021, published 2024).
Where no end group is shown, it is not given here.

Legend:
Kunjin virus (KUNV) [1] = experiment: Flavivirus inhibition assay, crystal violet-based plaque assay (Vero cells); type: cell-based; conditions: for reduction of viral load: L- or D-PLNC8 αβ (1:1)
[2] = Carboxyfluorescein (CF) release assay; type: biochemical
Procedure: Liposomes were prepared by thin film hydration, followed by extrusion^19. Stock solutions of the lipids 1-palmitoyl-2-oleoyl-sn-glycero3-phosphatidylcholine (POPC), 1-palmitoyl-2-oleoyl-sn-glycero-3-phosphoL-serine (POPS) and cholesterol (Chol) were mixed at molar ratio 95:0:5, 65:30:5, 70:0:30, 91:1:8 and 81:11:8. The solvent was slowly evaporated via nitrogen stream, then the vials were dried in a vacuum desiccator overnight. Dry films were hydrated by addition of 1 mL 5(6)-carboxyfluorescein solution. The CF solution, presenting self-quenching concentration of CF, was prepared with 50 mM CF dissolved in 10 mM PB buffer and 90 mM NaCl, followed by pH adjustment. CF solution was dispensed on the lipid cake and incubated for 10 min under gentle shaking (50 min-1 on orbital shaker), followed by 1 min vortexing. The liposomes were extruded 21 times with a mini extruder (Avanti Polar Lipids, Inc.), through a 0.1 um membrane (Nucleapore track-etched hydrophilic membrane). The lipids were purified by gel filtration through a PD Mini Trap G-25 column by elution in PB buffer (10 mM).
To study peptide efficacy on liposome membrane disruption, the liposome fluorescence was monitored upon peptide addition by microplate reader (Tecan Infinite M1000 Pro, λex=485 nm, λem=520 nm). Liposomes were diluted to a final concentration of 25 μM with 10 mM PB buffer and incubated with PLNC8 α, PLNC8 β and PLNC8 α/β at concentration of 10^−5-10^2 μM in a 96 well plate at a final volume of 200 μL. Due to the self-quenching concentration of carboxyfluorescein (CF) inside the liposomes, any fluorescence of the liposome-peptide system could be attributed to the liposome membrane disruption. Fluorescence was monitored prior to peptide addition (F0), and continuatively for 30 min. Total CF release (FT) was achieved through addition of 1% Triton X-100. Instantaneous CF release (%) was calculated through the formula 100×(F−F0)/(FT−F0), where F is the instantaneous fluorescence.

Kunjin virus (KUNV) [3] = experiment: Peptide treatment of KUNV-infected A549 cells (viral mRNA, extracellular virions); conditions: A549 infected 1 h, then 10 μM, 48 h; cell culture media
human cells = conditions: previously shown (ref. 16); cited from earlier work
[4] = tested on: Influenza A virus (H1N1/CA09pdm); experiment: Influenza A virus inhibition assay (plaque assay); type: cell-based; conditions: Influenza A virus (1×10^3) pre-treated 1 h at 37° C.; read-out: concentration for 50% reduction of influenza A PFU
Langat virus (LGTV) [5] = type: biochemical; conditions: 2 h
SARS-CoV-2 = SARS-CoV-2 virus inhibition assay (plaque assay); type: cell-based, Severe Acute Respiratory Syndrome Coronavirus 2; conditions: SARS-CoV-2 (1×10^3) exposed 1 h at 37° C., then Vero cells; read-out: concentration for 50% reduction of PFU
Langat virus (LGTV) [6] = type: cell-based

PLNC8 β: peptide of SEQ ID NO:1; statement covers L- and D-enantiomers (FIG. 7) (SVPTSVYTLGIKILWSAYKHRKTIEKSFNKGFYH; also: L- or D-enantiomer covered; listed as Lactobacillus plantarum)
efficiency at eliminating KUNV, single peptides compared (Kunjin virus (KUNV) [1]; 20 μM, L- and D-enantiomers (FIG. 7)): more efficient than PLNC8 α at eliminating KUNV

Plantaricin NC8 (PLNC8) αβ [PLNC8 αβ]
susceptibility of liposomes (CF release) ([2]; POPC:POPS:Chol (70:0:30), mimicking a eukaryotic plasma membrane): resilient
susceptibility of liposomes (CF release) ([2]; POPC:POPS:Chol (81:11:8), mimicking a eukaryotic ER membrane): very susceptible
susceptibility of liposomes (CF release) ([2]; POPC:POPS:Chol (91:1:8)): more susceptible
reduction of viral load (Kunjin virus (KUNV) [1]; 0.1 μM, KUNV MOI 0.1, 0.01, 0.001, 1 h): 80%
reduction of viral load (Kunjin virus (KUNV) [1]; 1 μM, KUNV MOI 0.1, 0.01, 0.001, 1 h): 95%
elimination of virions (Kunjin virus (KUNV) [1]; ≥10 μM, KUNV MOI 0.1, 0.01, 0.001, 1 h): completely eliminates all virions
reduction of extracellular virion load (Kunjin virus (KUNV) [3]): 70-80%
cytotoxicity towards human cells (human cells): no cytotoxicity towards human cells

SVPTSVYTLGIKILWSAYKHRKTIEKSFNKGFYH [L-PLNC8 β]
IC50 [4]: > 20 µM
permeabilization of the viral envelope (Sytox Green) (Langat virus (LGTV) [5]): permeabilization of LGTV
IC50 (SARS-CoV-2): 0.9 to 1 µM
decrease of viral load (Langat virus (LGTV) [6]): > 99%

SVPTSVYTLGIKILWSAYKHRKTIEKSFNKGFYH, SEQ ID NO:1 [D-PLNC8 β]
IC50 [4]: 19 µM
permeabilization of the viral envelope (Sytox Green) (Langat virus (LGTV) [5]): permeabilized
IC50 (SARS-CoV-2): 1.4 µM
